Legend:
MNS-induced AF = details: cited from earlier work; for effect on MNS-induced AF: previous work
[1] = system: intrinsic cardiac (IC) neurons; assay: evoked action potentials of intrinsic cardiac neurons after local drug application (intracellular recording); type: cell-based, guinea pig; details: 10^-3 M, 1- to 2-s local pressure ejection; across all groups (control, PO, PO+RCV, PO+LCV)
Description: Intracellular voltage recordings from IC neurons derived from explanted IC ganglia placed in 35-37° C. Krebs-Ringer solution were obtained by impaling cells with 3 M KCl-filled glass micropipettes (40- to 80-Me resistance) using an Axoclamp 2B amplifier (Molecular Devices). Data were collected, digitized, and analyzed using pClamp 10.2 (Molecular Devices). Individual neurons were used for data analysis if their resting membrane potential (RMP) was −40 mV or less and produced action potentials (APs) with an overshoot of >20 mV. Input resistance was determined using 0.1- and 0.2-nA pulses (500 ms). Neuronal soma excitability was monitored by observing the response to a series of long depolarizing current pulses (0.1-0.6 nA, 500 ms). The number of evoked APs vs. stimulus intensity was determined to assess relative changes in excitability. Afterhyperpolarization (AHP) durations were analyzed to determine the time to reach 50% of the amplitude from the peak of the AHP to the RMP.
For each cell, after characterization of the basic electrophysiological properties, induced changes in the number of evoked APs by depolarizing pulses were again assessed immediately following a 1- to 2-s application of NE (10^-3 M; Sigma) or bethanechol (a muscarinic agonist, 10^-3 M; Sigma). […]

| SMILES | effect on MNS-induced AF (MNS-induced AF) | further results |
| --- | --- | --- |
| C[N+](C)(C)CCCCCC[N+](C)(C)C [Hexamethonium] | – | number of AF responses to MNS stimulation (MNS-induced AF; posttreatment, from 90% baseline): 10% |
| NC[C@H](O)c1ccc(O)c(O)c1 [NE, norepinephrine] | – | changes in IC neuronal sensitivity elicited by local application [1]: less than that elicited by bethanecol |
| CN1[C@@H]2CC[C@H]1C[C@@H](OC(=O)C(CO)c1ccccc1)C2 (stereo partly shown) [atropine] | eliminated | – |
| CC(C)(C)NC[C@H](O)COc1nsnc1N1CCOCC1 [timolol] | modified | – |
